Assay results as given in patent publication EP0230274A2, “Derivatives of 7-(azabicycloalkyl)-quinoloncarboxylic acid and -naphthyridoncarboxylic acid” (BAYER AG, priority 1986, dated 1987).
≈ marks a conversion by molar mass, not a printed value. Structures can show the parent of a compound that is named as a salt. Where two headings read alike, the source gives them in different places.

Tests used:
Assay in all cases: Agar dilution test (Isosensitest agar), MIC
Type in all cases: cell-based
E.coli 455/7 = details: Escherichia coli; strain E.coli 455/7; Agardilutionstest/Isosensitestagar; read-out: MHK
Providenicia 12052 = details: read-out: MHK
Text: (§1) In der nachstehenden Tabelle sind einige MHK-Werte im Vergleich zu 1-Cyclopropyl-6-fluor-1,4-dihydro-4-oxo-7-(1-piperazinyl)-3-chinolincarbonsäure (Ciprofloxacin) angegeben: […]

Staph. aur. 133 = details: strain Staph. aur. 133; Agardilutionstest/Isosensitestagar; read-out: MHK
Text: as §1

Staph. aur. 1756 = details: strain Staph. aur. 1756; Agardilutionstest/Isosensitestagar; read-out: MHK
Text: as §1

Staph. aur. FK 422 = details: strain Staph. aur. FK 422; Agardilutionstest/Isosensitestagar; read-out: MHK
Text: as §1

Streptoc. faecal. 27101 = details: strain Streptoc. faecal. 27101; Agardilutionstest/Isosensitestagar; read-out: MHK
Text: as §1

Streptoc. faecal. 9790 = details: strain Streptoc. faecal. 9790; Agardilutionstest/Isosensitestagar; read-out: MHK
Text: as §1

Pseudomonas aerug. W. = details: strain Pseudomonas aerug. W.; Agardilutionstest/Isosensitestagar; read-out: MHK
[1] = strain Providenicia 12052, Agardilutionstest/Isosensitestagar

SMILES	MIC (E.coli 455/7)	MIC (Providenicia 12052; [1])	MIC (Staph. aur. 133)	MIC (Staph. aur. 1756)	MIC (Staph. aur. FK 422)	MIC (Streptoc. faecal. 27101)	MIC (Streptoc. faecal. 9790)	MIC (Pseudomonas aerug. W.)	MIC (Providenicia 12052)
O=C(O)c1cn(C2CC2)c2cc(N3CCNCC3)c(F)cc2c1=O [Ciprofloxacin, 1-Cyclopropyl-6-fluor-1,4-dihydro-4-oxo-7-(1-piperazinyl)-3-chinolincarbonsäure, reference compound]	2 µg/mL (≈ 6.04 µM)	32 µg/mL (≈ 96.6 µM)	0.5 µg/mL (≈ 1.51 µM)	0.5 µg/mL (≈ 1.51 µM)	0.5 µg/mL (≈ 1.51 µM)	0.5 µg/mL (≈ 1.51 µM)	0.25 µg/mL (≈ 0.754 µM)	0.5 µg/mL (≈ 1.51 µM)	–
O=C(O)c1cn(C2CC2)c2c(F)c(N3CCN4CCC3C4)c(F)cc2c1=O (stereo not drawn) [Beispiel 4, 1-Cyclopropyl-7-(1,4-diazabicyclo[3.2.1]oct-4-yl)-6,8-difluor-1,4-dihydro-4-oxo-3-chinolincarbonsäure]	0.5 µg/mL (≈ 1.33 µM)	8 µg/mL (≈ 21.3 µM)	0.06 µg/mL (≈ 0.16 µM)	0.06 µg/mL (≈ 0.16 µM)	–	–	0.25 µg/mL (≈ 0.666 µM)	0.5 µg/mL (≈ 1.33 µM)	–
CN1C2CCC1CN(c1cc3c(cc1F)c(=O)c(C(=O)O)cn3C1CC1)C2 [Beispiel 12, 1-Cyclopropyl-6-fluor-1,4-dihydro-7-(8-methyl-3,8-diazabi-cyclo[3.2.1]oct-3-yl)-4-oxo-3-chinolincarbonsäure]	4 µg/mL (≈ 10.8 µM)	–	–	–	–	–	–	0.5 µg/mL (≈ 1.35 µM)	16 µg/mL (≈ 43.1 µM)
O=C(O)c1cn(C2CC2)c2c(Cl)c(N3CCN4CCC3C4)c(F)cc2c1=O (stereo not drawn) [Beispiel 3, 8-Chlor-1-cyclopropyl-7-(1,4-diazabicyclo[3.2.1]ocl-4-yl)-6-fluor-1,4-dihydro-4-oxo-3-chinolincarbonäure-Hydrochlorid-Hydrat]	0.5 µg/mL	8 µg/mL	0.06 µg/mL	0.06 µg/mL	0.06 µg/mL	0.06 µg/mL	0.06 µg/mL	–	–
O=C(O)c1cn(C2CC2)c2cc(N3CCN4CCC3C4)c(F)cc2c1=O (stereo not drawn) [Beispiel 1, 1-Cyclopropyl-7-(1,4-diazabicyclo[3.2.1]oct-4-yl)-6-fluor-1,4-dihydro-4-oxo-3-chinolincarbonsäureHydrochlorid]	2 µg/mL	–	–	0.25 µg/mL	0.25 µg/mL	0.25 µg/mL	0.25 µg/mL	0.5 µg/mL	–
